Here are results for one compound from publication PMC7876048, “Mutant-selective degradation by BRAF-targeting PROTACs” (Nature Communications, 2021).

Test [1] deals with T1, BRAF^V600E (SK-MEL-28 cells, homozygous) (Homo sapiens, UniProt P15056, V600E).
T1 construct: endogenous in cells; host or cells: SK-MEL-28
Nature of the test: BRAF degradation by immunoblot in SK-MEL-28 cells. In kind it is cell-based. The procedure:
(§1) Cells were plated in 6 well dishes (5 × 10^5–8 × 10^5 cells) and allowed to attach overnight. […] The plates were then placed on ice and washed 1x with chilled PBS and lysed in buffer containing 25 mM Tris-HCl [pH 7.4], 0.25% sodium deoxycholate, 150 mM NaCl, 1% Triton X-100, supplemented with protease inhibitors (1x Roche protease inhibitor cocktail) and phosphatase inhibitors (10 mM NaF, 1 mM Na3OV4, and 20 mM β-glycerophosphate). Lysates were then cleared at 21,000 g for 10 min at 4 °C. Protein concentrations of the supernatants were then quantified using a Pierce BCA Protein Assay. 12–40 µg of protein were separated using a gradient (4–20%) Criterion TGX precast gel and transferred unto a nitrocellulose membrane. The membranes were then blocked in 5% non-fat milk in TBST (Tris-buffered Saline with Tween 20) for 1 h before probing with the indicated primary antibody overnight. Membranes were imaged using Bio-Rad Image Lab software using ECL prime detection reagent (GE Healthcare, RPN2232 or ThermoScientific, 34095).
(§2) Western blot data was quantified by using the band feature in Image Lab, and values were averaged and analyzed in GraphPad Prism. DC50 and DMAX values were fitted using a three parameter [inhibitor] versus response and reported directly from the Prism output. Mean ± SD and unpaired t-tests were performed in GraphPad Prism.
(In general: A western blot detects proteins with antibodies after separation by electrophoresis.)

The target of test [2] is T2, BRAF-p61^V600E (HCC-364 vr1 cells) (Homo sapiens, UniProt P15056+P40337, DEL169-380/V600E).
T2 construct: endogenous in cells; host or cells: SK-MEL-239 C4; HCC-364 vr1
T2 sequence (P15056 with tags, fused parts or gaps DEL169-380/V600E): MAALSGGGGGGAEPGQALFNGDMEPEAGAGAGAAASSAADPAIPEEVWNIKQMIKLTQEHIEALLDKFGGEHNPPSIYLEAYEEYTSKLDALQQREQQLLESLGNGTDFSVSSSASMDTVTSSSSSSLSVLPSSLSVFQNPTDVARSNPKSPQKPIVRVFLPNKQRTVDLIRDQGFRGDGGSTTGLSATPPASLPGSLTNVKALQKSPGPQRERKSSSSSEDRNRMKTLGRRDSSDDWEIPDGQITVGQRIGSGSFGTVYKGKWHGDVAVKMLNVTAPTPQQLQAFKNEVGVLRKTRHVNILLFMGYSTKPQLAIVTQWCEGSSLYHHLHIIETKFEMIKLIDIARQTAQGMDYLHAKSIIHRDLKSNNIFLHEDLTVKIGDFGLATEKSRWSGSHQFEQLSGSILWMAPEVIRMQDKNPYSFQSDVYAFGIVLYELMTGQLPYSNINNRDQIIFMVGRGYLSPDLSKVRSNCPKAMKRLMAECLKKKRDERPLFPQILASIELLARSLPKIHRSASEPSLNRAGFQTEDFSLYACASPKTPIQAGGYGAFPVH
T2 sequence (P40337 whole entry, stated change not applied): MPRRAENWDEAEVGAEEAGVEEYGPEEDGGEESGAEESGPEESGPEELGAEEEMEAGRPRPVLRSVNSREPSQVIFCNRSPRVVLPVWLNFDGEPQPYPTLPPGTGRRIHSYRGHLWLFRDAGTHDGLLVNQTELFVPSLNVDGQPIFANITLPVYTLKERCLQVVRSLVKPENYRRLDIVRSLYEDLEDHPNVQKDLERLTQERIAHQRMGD
T2 sequence (Q15370 whole entry partner): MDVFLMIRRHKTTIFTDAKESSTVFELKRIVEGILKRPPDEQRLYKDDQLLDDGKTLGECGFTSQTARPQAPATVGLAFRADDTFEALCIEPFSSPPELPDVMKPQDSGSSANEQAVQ
T2 sequence (Q15369 whole entry partner): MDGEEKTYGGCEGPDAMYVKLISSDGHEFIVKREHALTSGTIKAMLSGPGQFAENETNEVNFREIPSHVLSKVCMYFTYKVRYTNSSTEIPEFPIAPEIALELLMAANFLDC
Nature of the test: BRAF degradation by immunoblot in HCC-364 vr1 cells. It is filed as cell-based. The procedure: as §1, §2

In test [3] the target is T3, V5-tagged BRAF^WT (NIH3T3 cells) (Homo sapiens, UniProt P15056).
T3 construct: expressed in transfected cells; host or cells: NIH3T3 (mouse fibroblasts), doxycycline-inducible expression
T3 sequence (P15056 whole entry): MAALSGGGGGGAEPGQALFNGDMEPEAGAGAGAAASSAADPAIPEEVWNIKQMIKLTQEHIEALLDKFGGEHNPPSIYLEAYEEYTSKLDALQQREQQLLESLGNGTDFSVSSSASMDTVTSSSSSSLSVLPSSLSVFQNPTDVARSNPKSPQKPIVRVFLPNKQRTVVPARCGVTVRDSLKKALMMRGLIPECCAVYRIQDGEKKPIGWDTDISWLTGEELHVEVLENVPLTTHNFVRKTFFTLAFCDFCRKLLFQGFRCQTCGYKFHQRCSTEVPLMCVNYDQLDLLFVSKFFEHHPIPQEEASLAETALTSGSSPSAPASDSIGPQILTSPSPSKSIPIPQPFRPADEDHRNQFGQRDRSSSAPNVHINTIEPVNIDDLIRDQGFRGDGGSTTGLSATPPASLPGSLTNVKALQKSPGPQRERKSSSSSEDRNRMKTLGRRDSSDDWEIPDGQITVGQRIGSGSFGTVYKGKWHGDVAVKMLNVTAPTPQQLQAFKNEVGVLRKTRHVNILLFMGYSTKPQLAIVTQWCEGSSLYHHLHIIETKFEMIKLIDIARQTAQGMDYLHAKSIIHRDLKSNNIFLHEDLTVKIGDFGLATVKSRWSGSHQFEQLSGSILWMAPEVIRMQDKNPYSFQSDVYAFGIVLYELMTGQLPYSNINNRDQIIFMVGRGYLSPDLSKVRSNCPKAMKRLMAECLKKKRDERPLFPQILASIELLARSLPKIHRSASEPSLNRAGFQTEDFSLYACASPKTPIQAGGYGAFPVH
Nature of the test: V5-BRAF degradation by immunoblot in inducible NIH3T3 cells. In kind it is cell-based. The procedure: as §1, §2

Test [4] deals with VBC:PROTAC:BRAF ternary complex (V5-BRAF^V600E vs V5-BRAF^WT, NIH3T3 lysates). As to the kind of experiment: Cell lysate based ternary complex (GST-VBC pulldown) assay. In kind it is binding. Conditions: 5000 nM SJF-0628. The procedure:
Glutathione sepharose 4B was washed twice with water and then blocked for 1 h at room temperature with 10% BSA in TBST. The beads were then washed again twice with TBST and once with wash buffer (50 mM HEPES pH 7.5, 150 mM NaCl, 1 mM DTT, 0.01% NP40, 5 mM MgCl2, 10% glycerol) and then purified GST-VBC was immobilized for 2 h at 4 °C at 2.5 pmole per μL of beads. The beads were then washed thrice with wash buffer, resuspended and BRAF WT or V600E protein was added at 500 nM per 50 μL reaction with 5 μL of beads. The bead:BRAF mixture was then aliquoted to separate tubes and PROTAC was added at the indicated concentration (PROTACs were intermediately diluted in 50% DMSO) and this was incubated at 4 °C for 2 h. The beads were washed 4 times with 1 mL column of TBST and then eluted with SDS loading buffer.
For experiments in which the input substrate is a whole cell lysate, the sample was prepared as follows: […] of confluent NIH3T3 cells were doxycycline induced overnight, after which the cells were washed with DPBS and lysed using lysis buffer (50 mM Tris-HCl, pH 7.4, 015 M NaCl, 1 mM EDTA,1% NP40, 10% glycerol). The lysate was cleared by centrifugation and then added to the beads as an input substrate, as above.

Test [5] addresses T4, NanoLuc-BRAF^V600E : HaloTag-VHL (HEK293T cells) (Homo sapiens, UniProt P15056+P40337, V600E).
T4 construct: Full-length BRAF (WT and V600E) was cloned into the pNLF1-C [CMV/Hygro] vector; host or cells: HEK 293 T, transient co-transfection
As to the kind of experiment: NanoBRET ternary complex assay. The note with it: cells expressing BRAF^V600E, 3 h. In kind it is cell-based. The procedure: (§3) Full-length BRAF (WT and V600E) was cloned into the pNLF1-C [CMV/Hygro] vector. HEK 293 T cells were seeded into 6 well dishes (~75% confluent) and co-transfected with HaloTag-VHL (Promega; N273A) and C-terminal nanoLUC-tagged BRAF. Transfection was performed using a ratio of 1:2 DNA to Lipofectamine 2000. After 24 h, 1 × 10^4 cells were seeded into white 96 well plates (Costar Cat# 3610) in Opti-MEM™ I Reduced Serum Medium supplemented with 4% FBS and […] HaloTag NanoBRET 618 ligand or DMSO. The next day, the cells were pre-treated with 2 μM MG-132 for 1 h then treated with indicated amount of drug for 3 h. 6X NanoBRET Nano-Glo Substrate in Opti-MEM was then added to each well and the plate was read using a Perkin Elmer Envision. Dual filtered luminescence was measured with a 430 nm (donor, […]) and a 615 nm filter (acceptor, […]). Background corrected (cells without HaloTag 618 ligand) nanoBRET ratios were calculated to determine intracellular ternary complex formation.
On the technique in general: BRET reads energy transfer from a luciferase to a nearby fluorophore.

Test [6] concerns the target T5, NanoLuc-BRAF^WT : HaloTag-VHL (HEK293T cells) (Homo sapiens, UniProt P15056).
T5 construct: Full-length BRAF (WT and V600E) was cloned into the pNLF1-C [CMV/Hygro] vector; host or cells: HEK 293 T, transient co-transfection
As to the kind of experiment: NanoBRET ternary complex assay. It is filed as cell-based. The note with it: cells expressing BRAF^WT, concentrations as high as 10 μM, 3 h. The procedure:
as §3

Test [7] has as its system CAL-12-T cells (Class 3, BRAF^G466V). Nature of the test: Cell proliferation (MTS) assay. It is filed as cell-based. The note with it: 5 days. The procedure:
[…] 2 mg/ml MTS (Promega Corp., Madison, WI: G5421) and 25 μM phenazine methosulfate (Sigma, St. Louis, MO) were combined 19:1 and then added to cells (1 volume combined reagent: 5 volumes medium) and incubated for 1–3 h. Mitochondrial reduction of MTS to the formazan derivative was monitored by measuring the medium’s absorbance at 480 nm using a Perkin Elmer Envision Plate reader.

Test [8] has as its system SK-MEL-246 melanoma xenograft (Class 2, BRAF^G469A). As to the kind of experiment: SK-MEL-246 xenograft efficacy study. In kind it is in vivo, mice. The procedure:
10 million SK-MEL-246 cells were subcutaneously implanted in female nu/nu mice. The tumor volumes and mice weights were measured twice a week after the implantation. […] All studies were performed in compliance with institutional guidelines under an Institutional Animal Care and Use Committee (IACUC) approved protocol. Investigators were not blinded when assessing the outcome of the in vivo experiments.

“Also recorded” adds a separate entry of the source.

T1 sequence (P15056 whole entry V600E): as the sequence (P15056 whole entry) above, with V600E counted along it
T4 sequence (P15056 whole entry V600E): as the sequence (P15056 whole entry) above, with V600E counted along it
T4 sequence (P40337 whole entry): as the sequence (P40337 whole entry, stated change not applied) above
T4 sequence (Q15369 whole entry partner): as the sequence (Q15369 whole entry partner) above
T4 sequence (Q15370 whole entry partner): as the sequence (Q15370 whole entry partner) above

Regarding `CCCS(=O)(=O)Nc1ccc(F)c(C(=O)c2c[nH]c3ncc(-c4ccc(N5CCN(CC(=O)NC(C(=O)N6CC(O)CC6C(=O)NCc6ccc(-c7scnc7C)cc6)C(C)(C)C)CC5)cc4)cc23)c1F` (stereo not shown) [SJF-0628], in test [1] (100 nM), the “time for which BRAF^V600E degradation and p-ERK inhibition was sustained” value is “up to 72 h”. The “recovery of BRAF levels and MAPK phosphorylation after wash-out” value in test [1] (100 nM 24 h treatment, wash-out, 24 h after) is given as 30%. In addition, the “time to near complete / maximal BRAF^V600E degradation” value in test [1] (100 nM time course) is on record as at most 4 h. In addition, the DC50 (in general, the concentration giving 50% degradation) in test [1] (20-24 h treatment, read-out: DC50 (half-maximal degradation)) was 6.8 nM; in test [2], 147 nM. Moreover, the Dmax – broadly, the greatest extent of degradation seen – in test [1] (20-24 h treatment, read-out: DMAX (percent of maximal degradation)) was above 95%; in test [2] (HCC364), above 90%. Further, in test [3] (1 µM PD0325901 pre-treatment 3 h, SJF-0628 1 μM 20 h), the “PROTAC-mediated BRAF^WT degradation” value is on record as ~ 80%. Also, the “degradation of BRAF^WT by the PROTAC” value in test [3] (1 µM SCH772984 pre-treatment 3 h, SJF-0628 20 h) is ~ 90%. The “expression of WT RAF family members” value in test [3] (doxycycline-inducible V5-BRAF, no pre-treatment) was “spared BRAF^WT, ARAF, and CRAF”. The “ternary complex with VHL, BRAF^V600E relative to BRAF^WT” value in test [4] was ~ 3 fold. In addition, the BRET signal entry in test [5] was “an increase in BRET signal”; in test [6], “no observed increase”. Besides, the “inhibition of cell growth / effect on cell viability” value in test [7] is given as “minimal inhibition of cell growth; also recorded: minimal effect on cell viability”. The “effect on tumor growth” value is given as “minor response” in test [8] (once daily 100 mg/kg i.p.) and “tumor regression; also recorded: tumor shrinkage beyond the initial tumor size” in test [8] (twice daily 50 mg/kg i.p., within 10 days, 50 mg/kg).
